Results: patent US12070505B2, “Targeted peptide-drug conjugates” (priority 2021, dated 2024)

Assays:
[1] = test system: gastric adenocarcinoma cells (AGS); experiment: Cytotoxicity, MTS cell viability assay, AGS; conditions: 5 μM
Experimental: (§5) In Vitro Cytotoxicity Assay of Peptide-Drug Conjugates. […] In brief, CCRF-CEM cells were seeded at 50,000 cells in 0.1 mL per well in 98-well plates. In the case of other cell lines, the cells were seeded at 5,000 cells (0.1 mL per well in 96-well plates). […] Dox (5 μM) was used as a positive control, while water and cell culture medium were used as negative controls. The compounds were dissolved in water; water was used as a negative control to normalize the data. After the incubation period, MTS reagent (20 μL) was added to each well. The incubation was continued for 2 h. Cell viability was then determined by determination of the fluorescence intensity at 490 nm using a SpectraMax M2 microplate spectrophotometer. The percentage of cell viability was then calculated using the following equation: [(OD value of cells treated with the compound)−(OD value of culture medium)]/[(OD value of control cells)−(OD value of culture medium)]×100% (FIGS. 6-9).

MDA-MB-231 cells = experiment: MTS cytotoxicity assay of [(WR)8WKβA]-Dox, MDA-MB-231; conditions: 5 μM
Experimental: (§1) Cytotoxic activity of the synthesized conjugate and noncovalent mixtures of cyclic [WR]9+Dox was determined in SK-OV-3, MDA-MB-231, MCF-7, MES-SA/MX2, and H9C2 cells. […] An appropriate growth medium was used for each cell line (for SK-OV-3: McCoy's […] with L-glutamine containing fetal bovine serum (FBS) (10%) and penicillin or streptomycin (1%); for MDA-MB-231 and MCF-7 cells: DMEM/F12 (1:1) (1×) with L-Glutamine and 15 mM HEPES containing FBS (10%) and penicillin or streptomycin (1%), and for MES-SA/MX2 and H9C2 cells: Minimum Essential Medium Eagle with Earle's salts and sodium bicarbonate, without L-glutamine containing FBS (10%), and penicillin or streptomycin (1%)). The cells were seeded in a complete growth medium 24 h prior to the experiment. […] The incubation was continued for 3 h.

[2] = test system: uterine sarcoma cells (MES-SA/MX2); conditions: 5 μM
Experimental: as §5

H9C2 cells = experiment: Cytotoxicity, MTS assay, normal heart muscle cells (Example 1); conditions: 5 μM
Experimental: In Vitro Cytotoxicity Assay of Peptide-Drug Conjugates. The cytotoxicity of the compounds was determined by using human leukemia cell line (CCRF-CEM), human ovarian adenocarcinoma cells (SKOV-3) cells, kidney cell line (LLC-PK1), gastric adenocarcinoma cells (AGS), and heart/myocardium cells (H9C2) to evaluate the toxicity of the generated peptides according to a previously reported procedure (Rahman, A.; et al. Proc. Am. Assoc. Cancer Res. 26:2295-2299, 1985, which is incorporated herein by reference). In brief, CCRF-CEM cells were seeded at 50,000 cells in 0.1 mL per well in 98-well plates. In the case of other cell lines, the cells were seeded at 5,000 cells (0.1 mL per well in 96-well plates). The cells were seeded in medium (RPMI-1640 containing FBS (10%)), 24 h prior to the experiment. The compounds at different concentrations (10-50 μM) were added to each well in triplicate and incubated for 24 and 72 h at 37° C. in a humidified atmosphere of 5% CO2. Dox (5 μM) was used as a positive control, while water and cell culture medium were used as negative controls. The compounds were dissolved in water; water was used as a negative control to normalize the data. After the incubation period, MTS reagent (20 μL) was added to each well. The incubation was continued for 2 h. Cell viability was then determined by determination of the fluorescence intensity at 490 nm using a SpectraMax M2 microplate spectrophotometer.

MES-SA/MX2 cells = experiment: MTS cytotoxicity assay of [(WR)8WKβA]-Dox, MES-SA/MX2; conditions: 5 μM
Experimental: as §1

MDA-231R cells = experiment: LC50 by CCK-8 assay, Dox-resistant MDA-231R; assay type: cell-based
Experimental: (§2) Dox-resistant Cell Lines. Acquired resistance to Dox was induced in wild-type triple-negative breast cancer cell line MDA-MB-231 (MDA-231WT) as described before (Aliabadi, H. M.; et al. J. Control. Release 172:219-228, 2013, which is incorporated herein by reference). Briefly, MDA-231WT cells were exposed to Dox at an initial concentration of 0.05 μg/mL for one week or three consecutive expansions (whichever came later). […] Resistance induction was confirmed via calculation of LC50 following a sigmoidal effect model explained elsewhere (Bousoik, E.; et al. Front. Oncol. 9:1070, 2019, which is incorporated herein by reference) and determination of P-glycoprotein (P-gp) expression.
(§3) The cytotoxicity of the peptide-Dox conjugate in resistant triple-negative breast cancer and uterine sarcoma cell lines (MDA-231R, MDA-231WT, and MES-SA/MX2) was evaluated by a Cell Counting 8 (CCK8) KIT. The peptide-Dox conjugate was added to the cells in triplicate with different concentrations (0-40 μM). Cells were incubated at 37° C. and 5% CO2 for 24 h. After this incubation period, 10 μL of CCK8 reagent was added to each well, and plates were incubated at the same conditions for 2 h. The absorbance of each well was determined at 450 nm using the SpectraMAX M5 microplate reader. After subtracting the signal from blank wells that contain medium without cells in the plate with CCK-8 solution added, the results were normalized to cells treated with normal saline (considered as 100%)
(§4) Efficiency in Dox-Resistant Cells. In order to compare the cytotoxic effect of free and peptide-conjugated Dox in Dox-resistant cells, MDA-231WT (as a Dox-sensitive cell line as control) and MDA-231R and MES-SA/MX2 cells as Dox-resistant cells were exposed to a wide range of Dox (or Dox-equivalent for the peptide-conjugated drug) concentrations (0.05-40 μM). Cells were seeded in 96-well plates with approximately 50% confluency and were incubated for 24 h in 37° C. and 5% CO2. […] The cell viability was determined after this incubation period using the CCK-8 assay, as explained above. […]

MDA-231WT cells = experiment: LC50 by CCK-8 assay, wild-type cells; assay type: cell-based; conditions: MDA-231WT (wild type); FIG. 10: after 72 h
Experimental: as §2, §3, §4

What does the source list for COc1cccc2c1C(=O)c1c(O)c3c(c(O)c1C2=O)C[C@@](O)(C(=O)CO)C[C@@H]3O[C@H]1C[C@H](N)[C@H](O)[C@H](C)O1 [Dox, doxorubicin, reference compound]?
Cell Viability (%) after 24 h [1]: 54 ± 2%; Cell Viability (%) after 72 h [1]: 13 ± 3%; reduction of cell survival ([1]; 24 h): 46%; reduction of cell survival/viability ([1]; 72 h): 87%; cell viability (MDA-MB-231 cells; 24 h): 79%; cell viability (MDA-MB-231 cells; 72 h): 37%; inhibition of cell viability/proliferation (MDA-MB-231 cells; 72 h): 63%; Cell Viability (%) after 72 h [2]: 119 ± 5%; toxicity ([2]; 72 h): did not show any toxicity; reduction of cell survival (H9C2 cells; H9C2, 24 h): 20%; reduction of cell survival (H9C2 cells; H9C2, 72 h): 44%; reduction of cell survival (H9C2 cells; H9C2, 96 h): 44%; reduction of viability of heart cells (H9C2 cells; H9C2, time not stated): 44%; Cell Viability (%) after 24 h (H9C2 cells; normal heart H9C2): 80 ± 2%; Cell Viability (%) after 72 h (H9C2 cells; normal heart H9C2): 56 ± 3%; Cell Viability (%) after 96 h (H9C2 cells; normal heart H9C2): 56 ± 1%; efficiency against MES-SA/MX2 (MES-SA/MX2 cells; 1 μM, 10 μM, or 20 μM): did not show significant efficiency; inhibition of cell viability/proliferation (MES-SA/MX2 cells; MES-SA/MX2): 15%; CC50 (MDA-231R cells; MDA-231R (Dox-resistant), FIG. 10: after 72 h): 36 µM; LC50 in MDA-MB-231R cells, times higher than the naïve cells (MDA-231R cells; resistance induction): more than 50 times; CC50 (MDA-231WT cells): 0.45 µM
